Measurements: patent publication US20020182749A1, “Sample evaporative control” (ACLARA BioSciences, Inc., priority 1999, published 2002)
Like-named read-outs stand apart in the source and are kept apart here.

How the values were obtained:
CYP1A2 = CYP1A2 (Homo sapiens, UniProt P05177); test: in vitro
Description: B: Inhibition in CYP450 1A2 Assay:
Make 500 M CEC substrate for 1A2.
For each of the dilutions of furafylline make Buffer Mix:
Add 5 μl of the buffer mix to both of the side wells of the channels. Because the solution contains Pluronic F68, the solution in the middle assay well rises to the top. Dilute CYP1A2 enzyme 2:1 with water.
Add 300 nl of diluted enzyme to assay (middle) well.
Incubate at 37° C. for 35 minutes.
Take RFU readings using Molecular Devices F-max plate reader. F-max settings: Filter pair 390/460; Int.20 ms; speed 10.

[1] = biological target: T1, rhodamine-labeled streptavidin (Streptomyces avidinii, UniProt P22629); test: inhibition of antigen-receptor binding, fluorescein-biotin / rhodamine-labeled streptavidin, read at 520 nm
T1 construct: purchased Molecular Probe
T1 sequence (P22629 25-183): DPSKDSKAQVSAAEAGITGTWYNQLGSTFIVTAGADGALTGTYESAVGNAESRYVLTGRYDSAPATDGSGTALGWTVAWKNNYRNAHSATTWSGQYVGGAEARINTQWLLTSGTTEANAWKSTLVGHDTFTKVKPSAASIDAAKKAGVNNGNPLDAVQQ
Description: In the next study, the channel was filled with varying concentrations of biotin in the range of 0 to 5 μM and 100 nl of rhodamine-labeled streptavidin (625 nM) followed by 100 nl of 1.0 μM fluorescein-biotin added to the sample port. After incubating for 60 min., the signal was detected at 520±20 nm. The results are reported as fraction inhibition. The following tables provide the results.
Using the above reagents and protocol, an inhibition assay was performed. The protocol was to fill the channel with 0, 30, 60, 180, 240, 500, 600, 1000, 5000 […] of biotin, respectively, followed by dispensing 100 nl of rhodamine labeled receptor into the sample port. After dispensing 100 nl of 1.0 μM fluorescein labeled antigen into the sample port, the reaction mixture was incubated for 60 minutes. The fluorescence was recorded by exciting at 480±20 nm and reading the emission at 520 nm±20 nm As the inhibitor concentration increased, the fluorescence intensity increased, indicating an increased inhibition. The increase in the fluorescent signal as a function of inhibitor concentration was converted to the percentage of inhibition.

rhodamine-streptavidin = rhodamine-streptavidin (Streptomyces avidinii, UniProt P22629); test: FRET binding inhibition, fluorescein-biotin / rhodamine-streptavidin, read at 600 nm; details: fluorescein-biotin 50 μM, rhodamine-streptavidin 25 μM, varying biotin
rhodamine-streptavidin, sequence (P22629 25-183): as above
Description: In another series of studies binding assays were performed using fluorescence resonance energy transfer. The procedure employed is as follows. The channel was rinsed and filled with 25 μl of rhodamine labeled streptavidin and 100 nl of fluorescein labeled biotin dispensed in the sample port. The concentration of the antigen varied from 0 to 100 μM by 2-fold dilutions. The signal detection system was as described, except that emission was detected at 600±20 nm. The energy transfer increased corresponding to the increase in antigen. The study was repeated varying the amount of labeled streptavidin while keeping the biotin-fluorescein at 25 μM. The background FRET signal contributed by rhodamine-streptavidin alone was substantially negligible, when the concentration of rhodamine-streptavidin was greater than about 2 μM. The following tables provide the results for the two studies.
In the next study, the effect of inhibitor on the observed signal was investigated. Fluorescein-biotin was maintained at 50 μM and rhodamine-streptavidin at 25 μM. the signal was read at 600±20 nm at varying concentrations of biotin as a binding inhibitor, with 100 nl of the binding inhibitor being added to the sample port.

alkaline phosphatase [2] = test: competitive inhibition assay, alkaline phosphatase with AutoPhos substrate; type: biochemical
Description: The next study evaluated the system using a competitive inhibition assay, 4-Nitrophenyl phosphate (PNPP) (Sigma Chemical Co., St. Louis, Mo.) was used as a non-fluorescent substrate for alkaline phosphatase (20 femtomoles) competing with the AutoPhos substrate. The channel was rinsed with AutoPhos buffer and filled with […] AutoPhos substrate. Into the sample port was introduced 100 nl of PNPP at concentrations varying from 0 to 10 mM and the fluorescent signal was determined at different reaction time points.
The channel was rinsed with AutoPhos buffer and then filled with about 10 μl of 1 mM AutoPhos substrate. 50 nl of alkaline phosphatase was then dispensed into the sample port. The amount of enzyme dispensed into the sample port increased from 31.25 attomole to 62.5 femtomoles by a factor of 2. Enzyme solutions of different concentrations were prepared in individual wells of a 96-well microtitre plate. Fluorescence was excited at 480 nm±20 nm and emission collected at 520±20 nm. The signals were recorded at different time points, 0, 5, 10, 15, up to 35 minutes.
The next assay was a competitive inhibition assay using the following protocol: 4-Nitrophenyl phosphate (PNPP) was used as a non-fluorescent substrate for competing for alkaline phosphatase with AutoPhos substrate. After rinsing the channels with AutoPhos buffer, the channel was filled with 1 mM AutoPhos substrate. 100 nl of PNPP was dispensed at different concentrations ranging form 0 to 60 mM. The fluorescent signal was measured at different reaction time points. The fluorescent signal as a function of different inhibitor concentrations is tabulated as following.

alkaline phosphatase [3] = test: alkaline phosphatase inhibition study on capillary electrophoresis card, FDP substrate; type: biochemical; details: 1.3 mU/ml alkaline phosphatase, 3.33 μM FDP, increasing PNPP
Description: The experimental procedure was as follows: the assay well is covered by tape. 5 μl of buffer was added to the reservoirs. 500 nl of the fluorescein or assay mixture was pipetted into the assay well. For the alkaline phosphatase assay, enzyme and substrate with or without inhibitor was mixed in a tube and then 500 nl of the assay mixture was pipetted into the assay well. The detection was performed at 7 mm distance from the injector. The particular conditions for each determination are set forth with the figure.
FIG. 17 illustrates the alkaline phosphatase activity for the different incubation times. As shown in the electropherograms, two product peaks (the first peak is fluorescein mono phosphate and the 2nd peak is fluorescein) are well separated from each other. Additionally, the use of longer incubation time results in more conversion of FDP (fluorescein di-phosphate as a substrate) to the FMP (fluorescein mono-phosphate) and finally to fluorescein. FIG. 18 depicts a linear calibration curve for the alkaline phosphatase using the card. For the inhibition study, PNPP which is a non-fluorescent substrate for the alkaline phosphatase and competes with FDP which is a fluorescent substrate for the enzyme, is added to the assay mixture at a number of different concentrations.

alkaline phosphatase [4] = test: alkaline phosphatase inhibition in device ports, fluorescein diphosphate substrate; type: biochemical; details: 30 nl 0.1 nM enzyme
Excerpt: The upper plate is about 1 mm in height and the lower plate is also about 1 mm in height. The port for introducing solutions is 1 mm in diameter and about 900 to 950 μm in height, while the channel substantially extends the remaining length of the upper sheet. The channel was varied from about 0.2 mm to 3.0 mm in width, where the interface between the port or well and the channel varied, with either the port or the channel determining the area of interface. The reservoirs have a diameter of about 2 mm. The channels were treated with 2N sodium hydroxide for 5 mins. using a vacuum pump to ensure that the basic solution extends through the channels and reservoirs. The ports or wells appear to be unaffected by this treatment, so that the channels and reservoirs have a hydrophilic surface, while the ports have a hydrophobic surface. One or more of the ports are used in each of the studies. Common to each of the experiments is to fill the device with 10 μl of 25 μM fluorescein diphosphate in 50 mM Tris buffer (pH 10.0) added to each of the inlet reservoirs, after prewetting the device.
In the next study, the effect of enzyme inhibitor was investigated. The channel was 1 mm in width. […] The fluorescence development is monitored with a CCD camera. Fluorescence is substantially confined to the ports and the fluorescent signal is related to the concentration of inhibitor introduced into the port.

[5] = read-out: Fraction of Inhibition

CYP1A2, sequence (P05177 whole entry): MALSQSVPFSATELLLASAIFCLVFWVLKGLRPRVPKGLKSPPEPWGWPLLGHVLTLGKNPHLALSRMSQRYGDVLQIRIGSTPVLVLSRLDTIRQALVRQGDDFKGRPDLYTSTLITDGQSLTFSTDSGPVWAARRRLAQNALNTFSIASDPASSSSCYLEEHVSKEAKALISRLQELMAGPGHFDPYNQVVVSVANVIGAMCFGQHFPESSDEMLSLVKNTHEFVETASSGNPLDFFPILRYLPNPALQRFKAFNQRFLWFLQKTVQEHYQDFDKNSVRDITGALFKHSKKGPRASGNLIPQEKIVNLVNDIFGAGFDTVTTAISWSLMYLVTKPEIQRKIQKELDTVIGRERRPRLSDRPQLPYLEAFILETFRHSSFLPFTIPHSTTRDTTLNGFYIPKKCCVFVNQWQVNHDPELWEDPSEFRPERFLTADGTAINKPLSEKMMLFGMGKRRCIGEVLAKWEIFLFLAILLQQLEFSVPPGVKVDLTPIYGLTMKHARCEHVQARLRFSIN

Work on Cc1nc2c([nH]1)c(=O)n(C)c(=O)n2Cc1ccco1 [furafylline] yielded an inhibition at 35 min, 0.133 µM (CYP1A2) of 2%, an inhibition at 35 min, 0.665 µM (CYP1A2) of 31% and an inhibition at 35 min, 1.33 µM (CYP1A2) of 64%. It also gave an inhibition at 35 min, 6.65 µM (CYP1A2) of 72%, an inhibition at 35 min, 13.3 µM (CYP1A2) of 75% and an inhibition at 35 min, 66.5 µM (CYP1A2) of 77%. For the same compound, the inhibition at 35 min, 133 µM (CYP1A2) was 78%.

O=C(O)CCCC[C@@H]1SC[C@@H]2NC(=O)N[C@@H]21 [biotin, D(+)-Biotin] was tested, and the inhibition at 0.03 µM ([1]; read-out: % of Inhibition) was 3.85%, the inhibition at 0.06 µM ([1]; read-out: % of Inhibition) was 3.1% and the inhibition at 0.18 µM ([1]; read-out: % of Inhibition) was 5%. The inhibition at 0.24 µM ([1]; read-out: % of Inhibition) was 5.14%, the inhibition at 0.5 µM ([1]; read-out: % of Inhibition) was 22.4% and the inhibition at 0.6 µM ([1]; read-out: % of Inhibition) was 36.6%. For the same compound, the inhibition at 1 µM ([1]; read-out: % of Inhibition) was 95%, the inhibition at 5 µM ([1]; read-out: % of Inhibition) was 100% and the inhibition at 0.03 µM [1, 5] was 3.85%. For the same compound, the inhibition at 0.06 µM [1, 5] was 3.1%, the inhibition at 0.18 µM [1, 5] was 5% and the inhibition at 0.24 µM [1, 5] was 5.14%. It also gave an inhibition at 0.5 µM [1, 5] of 22.4%, an inhibition at 0.6 µM [1, 5] of 36.6% and an inhibition at 1 µM [1, 5] of 95%. The inhibition at 5 µM [1, 5] was 100% and the “energy transfer (FRET signal at 600 nm)” value (rhodamine-streptavidin) was “decreased with increase of binding inhibitor”.

O=[N+]([O-])c1ccc(OP(=O)(O)O)cc1 [PNPP, 4-Nitrophenyl phosphate] was tested, and the “Fluorescent Signal” value (alkaline phosphatase [2]; Inhibitor conc. 0.001 mM) was 4.5 ×103, the “Fluorescent Signal” value (alkaline phosphatase [2]; Inhibitor conc. 0.0025 mM) was 4.0 ×103 and the “Fluorescent Signal” value (alkaline phosphatase [2]; Inhibitor conc. 0.005 mM) was 4.0 ×103. For the same compound, the “Fluorescent Signal” value (alkaline phosphatase [2]; Inhibitor conc. 0.01 mM) was 3.5 ×103, the “Fluorescent Signal” value (alkaline phosphatase [2]; Inhibitor conc. 0.02 mM) was 2.6 ×103 and the “Fluorescent Signal” value (alkaline phosphatase [2]; Inhibitor conc. 0.3125 mM) was 2.0 ×103. The “Fluorescent Signal” value (alkaline phosphatase [2]; Inhibitor conc. 0.625 mM) was 1.6 ×103, the “Fluorescent Signal” value (alkaline phosphatase [2]; Inhibitor conc. 1.25 mM) was 1.6 ×103 and the “Fluorescent Signal” value (alkaline phosphatase [2]; Inhibitor conc. 5 mM) was 1.6 ×103. For the same compound, the “Fluorescent Signal” value (alkaline phosphatase [2]; Inhibitor conc. 10 mM) was 1.5 ×103, the “Fluorescence Signal” value (alkaline phosphatase [2]; [Inhibitor] 0.001 mM) was 4527 RFU and the “Fluorescence Signal” value (alkaline phosphatase [2]; [Inhibitor] 0.0025 mM) was 4000 RFU. The “Fluorescence Signal” value (alkaline phosphatase [2]; [Inhibitor] 0.005 mM) was 4000 RFU, the “Fluorescence Signal” value (alkaline phosphatase [2]; [Inhibitor] 0.01 mM) was 3500 RFU and the “Fluorescence Signal” value (alkaline phosphatase [2]; [Inhibitor] 0.02 mM) was 2600 RFU. For the same compound, the “Fluorescence Signal” value (alkaline phosphatase [2]; [Inhibitor] 0.3125 mM) was 2000 RFU, the “Fluorescence Signal” value (alkaline phosphatase [2]; [Inhibitor] 0.625 mM) was 1600 RFU and the “Fluorescence Signal” value (alkaline phosphatase [2]; [Inhibitor] 1.25 mM) was 1600 RFU. For the same compound, the “Fluorescence Signal” value (alkaline phosphatase [2]; [Inhibitor] 5 mM) was 1600 RFU, the “Fluorescence Signal” value (alkaline phosphatase [2]; [Inhibitor] 10 mM) was 1500 RFU and the “Fluorescence Signal” value (alkaline phosphatase [2]; [Inhibitor] 60 mM) was 750 RFU. For the same compound, the “effect on FDP alkaline phosphatase activity” value (alkaline phosphatase [3]) was “reduction of FDP alkaline phosphates activity”.

In the case of Cc1ncc(COP(=O)(O)O)c(C=O)c1O [pyridoxal phosphate], the “fluorescence development in port” value (alkaline phosphatase [4]; 30 nl of 25 μM inhibitor) is reported as “only moderately inhibited” and the “fluorescence development in port” value (alkaline phosphatase [4]; 30 nl of 250 μM inhibitor, at 30 mins) is reported as “still very faint”.
